Data taken from ChEMBL document CHEMBL3885861, “Open TG-GATES”.

Species on record: Rattus norvegicus
Test: Open TG-GATES - Regimen: Single
Assay type: toxicity, organism-based, Sprague-Dawley
Parameters: regimen Single, gender Male, age 6 weeks
Conditions: in vivo, po, 0 mg/kg, route gavage, dose level Control; for APTT / Bas / Eos / Fbg / Hb / Ht / Lym / MCH / MCHC / MCV / Mono / Neu / PT / Plat / RBC / Ret / WBC: tissue Blood; for KIDNEY_L / KIDNEY_R / KIDNEY_TOTAL: tissue Kidney; for LIVER: tissue Liver; for ALP / ALT / AST / BUN / CRE / Ca / Cl / DBIL / GLC / IP / K / LDH / Na / PL / RALB / TBIL / TC / TG / TP / gamma-GTP: tissue Plasma

Work on `COc1cc([C@@H]2c3cc4c(cc3[C@@H](O[C@@H]3O[C@@H]5CO[C@@H](C)O[C@H]5[C@H](O)[C@H]3O)[C@H]3COC(=O)[C@H]23)OCO4)cc(OC)c1O` [ETOPOSIDE] yielded a TERMINAL_BW (3 h) of 199.4 g, an APTT (3 h) of 17.1 s and a Bas (3 h) of 0%. The Eos (3 h) was 1.2%, the Fbg (3 h) was 192.2 mg/dL and the Hb (3 h) was 13.3 g/dL. It also gave a Ht (3 h) of 39.3%, a Lym (3 h) of 74.8% and an MCH (3 h) of 22.4 pg. It also gave an MCHC (3 h) of 33.8%, an MCV (3 h) of 66.2 fL and a Mono (3 h) of 8%. For the same compound, the Neu (3 h) was 15.8%, the PT (3 h) was 12.2 s and the Plat (3 h) was 113.5 x10_4/uL. It also gave an RBC (3 h) of 594.2 x10_4/ul, a Ret (3 h) of 10.6% and a WBC (3 h) of 85 x10_2/uL. It also gave a KIDNEY_L (3 h) of 1 g, a KIDNEY_R (3 h) of 1 g and a KIDNEY_TOTAL (3 h) of 2 g. It also gave an LIVER (3 h) of 9.5 g, an ALP (3 h) of 857.8 IU/L and an ALT (3 h) of 32.8 IU/L. For the same compound, the AST (3 h) was 67.6 IU/L, the BUN (3 h) was 11.8 mg/dL and the CRE (3 h) was 0.5 mg/dL. It also gave a Ca (3 h) of 10.4 mg/dL, a Cl (3 h) of 105 meq/L and a DBIL (3 h) of 0.034 mg/dL. It also gave a GLC (3 h) of 197.6 mg/dL, an IP (3 h) of 9.1 mg/dL and a K (3 h) of 4.7 meq/L. It also gave an LDH (3 h) of 97.4 IU/L, a Na (3 h) of 141.6 meq/L and a PL (3 h) of 126.6 mg/dL. The RALB (3 h) was 3.4 g/dL, the TBIL (3 h) was 0.3 mg/dL and the TC (3 h) was 71.8 mg/dL. It also gave a TG (3 h) of 43 mg/dL, a TP (3 h) of 5.2 g/dL and a gamma-GTP (3 h) of 1 IU/L. For the same compound, the TERMINAL_BW (6 h) was 198 g, the APTT (6 h) was 16.6 s and the Bas (6 h) was 0%. For the same compound, the Eos (6 h) was 0.8%, the Fbg (6 h) was 201.6 mg/dL and the Hb (6 h) was 13.4 g/dL. It also gave a Ht (6 h) of 39.7%, a Lym (6 h) of 82.4% and an MCH (6 h) of 22 pg. The MCHC (6 h) was 33.7%, the MCV (6 h) was 65.3 fL and the Mono (6 h) was 5.6%. For the same compound, the Neu (6 h) was 11.2%, the PT (6 h) was 11.9 s and the Plat (6 h) was 117.8 x10_4/uL. The RBC (6 h) was 607.8 x10_4/ul, the Ret (6 h) was 9.8% and the WBC (6 h) was 93.7 x10_2/uL. For the same compound, the KIDNEY_L (6 h) was 0.9 g, the KIDNEY_R (6 h) was 0.9 g and the KIDNEY_TOTAL (6 h) was 1.8 g. The LIVER (6 h) was 9.1 g, the ALP (6 h) was 946.6 IU/L and the ALT (6 h) was 36 IU/L. The AST (6 h) was 65.2 IU/L, the BUN (6 h) was 11.6 mg/dL and the CRE (6 h) was 0.6 mg/dL. For the same compound, the Ca (6 h) was 10.6 mg/dL, the Cl (6 h) was 105 meq/L and the DBIL (6 h) was 0.016 mg/dL. For the same compound, the IP (6 h) was 10.5 mg/dL, the K (6 h) was 4.8 meq/L and the LDH (6 h) was 65.8 IU/L. The Na (6 h) was 142.4 meq/L, the PL (6 h) was 132.8 mg/dL and the RALB (6 h) was 3.3 g/dL. It also gave a TBIL (6 h) of 0.4 mg/dL, a TC (6 h) of 72.8 mg/dL and a TG (6 h) of 68.4 mg/dL. The TP (6 h) was 5.2 g/dL, the gamma-GTP (6 h) was 1 IU/L and the TERMINAL_BW (9 h) was 194.1 g. The APTT (9 h) was 16.9 s, the Bas (9 h) was 0% and the Eos (9 h) was 1.2%. For the same compound, the Fbg (9 h) was 206 mg/dL, the Hb (9 h) was 13.4 g/dL and the Ht (9 h) was 39.7%. The Lym (9 h) was 74.4%, the MCH (9 h) was 22.2 pg and the MCHC (9 h) was 33.9%. It also gave an MCV (9 h) of 65.6 fL, a Mono (9 h) of 9.8% and a Neu (9 h) of 15%. The PT (9 h) was 10.9 s, the Plat (9 h) was 117.1 x10_4/uL and the RBC (9 h) was 604.6 x10_4/ul. For the same compound, the Ret (9 h) was 9.1%, the WBC (9 h) was 71.2 x10_2/uL and the KIDNEY_L (9 h) was 0.9 g. It also gave a KIDNEY_R (9 h) of 0.9 g, a KIDNEY_TOTAL (9 h) of 1.9 g and an LIVER (9 h) of 8.4 g. It also gave an ALP (9 h) of 752.2 IU/L, an ALT (9 h) of 29.8 IU/L and an AST (9 h) of 58.2 IU/L. The BUN (9 h) was 10.4 mg/dL, the CRE (9 h) was 0.5 mg/dL and the Ca (9 h) was 10.6 mg/dL. The Cl (9 h) was 107.6 meq/L, the DBIL (9 h) was 0.022 mg/dL and the GLC (9 h) was 190.6 mg/dL. It also gave an IP (9 h) of 10.1 mg/dL, a K (9 h) of 4.6 meq/L and an LDH (9 h) of 59.2 IU/L. For the same compound, the Na (9 h) was 144.6 meq/L, the PL (9 h) was 127.4 mg/dL and the RALB (9 h) was 3.4 g/dL. It also gave a TBIL (9 h) of 0.4 mg/dL, a TC (9 h) of 71.6 mg/dL and a TG (9 h) of 28.4 mg/dL. The TP (9 h) was 5.4 g/dL, the gamma-GTP (9 h) was 0.8 IU/L and the TERMINAL_BW (24 h) was 215.6 g. The APTT (24 h) was 16.3 s, the Bas (24 h) was 0% and the Eos (24 h) was 1.2%. For the same compound, the Fbg (24 h) was 207.6 mg/dL, the Hb (24 h) was 13.1 g/dL and the Ht (24 h) was 38.4%. It also gave a Lym (24 h) of 78.2%, an MCH (24 h) of 22.7 pg and an MCHC (24 h) of 34.1%. For the same compound, the MCV (24 h) was 66.6 fL, the Mono (24 h) was 6% and the Neu (24 h) was 14.6%. For the same compound, the PT (24 h) was 11.6 s, the Plat (24 h) was 107.4 x10_4/uL and the RBC (24 h) was 578 x10_4/ul. For the same compound, the Ret (24 h) was 8.8%, the WBC (24 h) was 94.9 x10_2/uL and the KIDNEY_L (24 h) was 1 g. For the same compound, the KIDNEY_R (24 h) was 1 g, the KIDNEY_TOTAL (24 h) was 2 g and the LIVER (24 h) was 10.9 g. The ALP (24 h) was 866 IU/L, the ALT (24 h) was 38.2 IU/L and the AST (24 h) was 68.2 IU/L. For the same compound, the CRE (24 h) was 0.6 mg/dL, the Ca (24 h) was 10.9 mg/dL and the Cl (24 h) was 104.6 meq/L. It also gave a DBIL (24 h) of 0.03 mg/dL, a GLC (24 h) of 196.6 mg/dL and an IP (24 h) of 7.7 mg/dL. It also gave a K (24 h) of 4.8 meq/L, an LDH (24 h) of 85.2 IU/L and a Na (24 h) of 141.4 meq/L. For the same compound, the PL (24 h) was 161.6 mg/dL, the RALB (24 h) was 3.6 g/dL and the TBIL (24 h) was 0.3 mg/dL. The TC (24 h) was 92.2 mg/dL, the TG (24 h) was 84.4 mg/dL and the TP (24 h) was 5.6 g/dL. It also gave a gamma-GTP (24 h) of 1.6 IU/L.
